pIC50: −log10 of the molar value. Activity calls are given as the source filed them. The rule behind the calls is not given here.
How the values were obtained:
[1] = Cytotoxicity against C57BL/6 mouse primary CD8-positive T lymphocytes assessed as effect on cell viability at 1 to 5 uM incubated for 48 hrs by CCK8 assay; type: tissue-based; conditions: dose 1-5 µM
CD8-positive T cell [2] = assay: Inhibition of CD3/CD28 antibody-stimulated C57BL/6 mouse primary CD8-positive T lymphocytes proliferation assessed as reduction in cell viability incubated for 48 hrs by CCK8 assay; type: functional, tissue-based; conditions: dose 1-10 µM
[3] = Acute toxicity in Kunming mouse assessed as animal survival without abnormal state at 5 to 10 g/kg, po administered as single dose; type: organism-based; conditions: in vivo, dose 5-10 g/Kg
Mus musculus [4] = assay: Anti-aplastic anaemia in immune-mediated bone marrow failure BALB/c mouse model assessed as increase in spleen index at 2.5 to 10 mg/kg, po administered for 14 days; type: functional, organism-based; conditions: dose 2.5-10 mg/kg, time 14.0 day
Mus musculus [5] = assay: Anti-aplastic anaemia in immune-mediated bone marrow failure BALB/c mouse model assessed as increase in ratio of nucleated cell to erythroid cell counts in femur at 2.5 to 10 mg/kg, po administered for 14 days and measured on day 14 by Hematoxylin-Eosin staining based analysis; type: functional, organism-based; conditions: dose 2.5-10 mg/kg, time 14.0 day
[6] = Inhibition of mouse CTLL-2 cells activity incubated for 24 hrs; type: functional, cell-based
[7] = Cytotoxicity against C57BL/6J mouse peritoneal macrophages assessed as reduction of cell viability at 10 uM incubated for 24 hrs in presence of LPS by MTT assay; type: cell-based, Peritoneal macrophage
[8] = Inhibition of hematopoietic negative regulators release in CD3/CD28 antibody-stimulated C57BL/6 mouse primary CD8-positive T lymphocytes assessed as suppression of IFN-gamma release measured after 48 hrs by ELISA; type: functional, tissue-based; conditions: C57BL/6, CD8-positive T cell
[9] = Inhibition of CD3/CD28 antibody-stimulated C57BL/6 mouse primary CD8-positive T lymphocytes activation assessed as proportion of CD69-positive cells at 1 uM incubated for 48 hrs by flow cytometry (reference value: 93.42%); type: functional, CD8-positive T cell; set-up: scale not given: the % may be the effect or the level left
[10] = Inhibition of hematopoietic negative regulators release in CD3/CD28 antibody-stimulated C57BL/6 mouse primary CD8-positive T lymphocytes assessed as suppression of TNF-alpha release measured after 48 hrs by ELISA; type: functional, tissue-based; conditions: C57BL/6, CD8-positive T cell
Mus musculus [11] = assay: Anti-aplastic anaemia in immune-mediated bone marrow failure BALB/c mouse model assessed as prevention of food intake decrease at 2.5 to 10 mg/kg, po administered for 14 days; type: functional, organism-based; conditions: dose 2.5-10 mg/kg, time 14.0 day
Mus musculus [12] = assay: Anti-aplastic anaemia in immune-mediated bone marrow failure BALB/c mouse model assessed as reduction in histopathological changes in femur at 2.5 to 10 mg/kg, po administered for 14 days and measured on day 14 by Hematoxylin-Eosin staining based analysis; type: functional, organism-based; conditions: dose 2.5-10 mg/kg, time 14.0 day
Mus musculus [13] = assay: Anti-aplastic anaemia in immune-mediated bone marrow failure BALB/c mouse model assessed as increase in WBC count at 2.5 to 10 mg/kg, po administered for 14 days and measured on day 14 by automated micro-analyzer; type: functional, organism-based; conditions: dose 2.5-10 mg/kg, time 14.0 day
[14] = Inhibition of CD3/CD28 antibody-stimulated C57BL/6 mouse primary CD8-positive T lymphocytes activation assessed as proportion of CD69-positive cells at 3 uM incubated for 48 hrs by flow cytometry (reference value: 93.42%); type: functional, CD8-positive T cell; set-up: scale not given: the % may be the effect or the level left
CD8-positive T cell [15] = assay: Inhibition of aerobic glycolysis in CD3/CD28 antibody-stimulated C57BL/6 mouse primary CD8-positive T lymphocytes assessed as reduction in glucose consumption at 1 to 5 uM incubated for 48 hrs; type: functional, tissue-based; conditions: dose 1-5 µM
[16] = Acute toxicity in po dosed Kunming mouse; type: organism-based; conditions: in vivo
Mus musculus [17] = assay: Anti-aplastic anaemia in immune-mediated bone marrow failure BALB/c mouse model assessed as increase in hemoglobin content at 2.5 to 10 mg/kg, po administered for 14 days and measured on day 14 by automated micro-analyzer; type: functional, organism-based; conditions: dose 2.5-10 mg/kg, time 14.0 day
Mus musculus [18] = assay: Anti-aplastic anaemia in immune-mediated bone marrow failure BALB/c mouse model assessed as increase in platelet count at 2.5 to 10 mg/kg, po administered for 14 days and measured on day 14 by automated micro-analyzer; type: functional, organism-based; conditions: dose 2.5-10 mg/kg, time 14.0 day
[19] = Inhibition of mouse CTLL-2 cells activity at 10 uM incubated for 24 hrs; type: functional
[20] = Inhibition of IFN-gamma release in mouse CTLL-2 cells measured after 24 hrs by ELISA; type: functional, cell-based; conditions: CTLL-2, 24 h
Mus musculus [21] = assay: Anti-aplastic anaemia in immune-mediated bone marrow failure BALB/c mouse model assessed as increase in eosinophils count at 2.5 to 10 mg/kg, po administered for 14 days and measured on day 14 by automated micro-analyzer; type: functional, organism-based; conditions: dose 2.5-10 mg/kg, time 14.0 day
Mus musculus [22] = assay: Anti-aplastic anaemia in immune-mediated bone marrow failure BALB/c mouse model assessed as increase in immature reticulocytes administered orally for 14 days and measured on day 14 by automated micro-analyzer; type: functional, organism-based; conditions: dose 2.5-10 mg/kg, time 14.0 day
CD8-positive T cell [23] = assay: Inhibition of CD3/CD28 antibody-stimulated C57BL/6 mouse primary CD8-positive T lymphocytes proliferation at 1 to 5 uM incubated for 48 hrs by CFSE staining based flow cytometry; type: functional, tissue-based; conditions: dose 1-5 µM
Peritoneal macrophage = assay: Inhibition of LPS-induced NO production in C57BL/6J mouse peritoneal macrophages at 10 uM measured after 24 hrs in presence of LPS by Griess reagent based assay relative to control; type: functional
Mus musculus [24] = assay: Anti-aplastic anaemia in immune-mediated bone marrow failure BALB/c mouse model assessed as increase in thymus index at 2.5 to 10 mg/kg, po administered for 14 days; type: functional, organism-based; conditions: dose 2.5-10 mg/kg, time 14.0 day
Mus musculus [25] = assay: Anti-aplastic anaemia in immune-mediated bone marrow failure BALB/c mouse model assessed as increase in hematocrit content at 2.5 to 10 mg/kg, po administered for 14 days and measured on day 14 by automated micro-analyzer; type: functional, organism-based; conditions: dose 2.5-10 mg/kg, time 14.0 day
Mus musculus [26] = assay: Anti-aplastic anaemia in immune-mediated bone marrow failure BALB/c mouse model assessed as increase in nucleated cell counts in femur at 2.5 to 10 mg/kg, po administered for 14 days and measured on day 14 by Hematoxylin-Eosin staining based analysis; type: functional, organism-based; conditions: dose 2.5-10 mg/kg, time 14.0 day
[27] = biological target: Voltage-gated inwardly rectifying potassium channel KCNH2 (Homo sapiens, UniProt Q12809); assay: Inhibition of human ERG expressed in CHO cells measured after 24 hrs by patch clamp assay; type: cell-based
Sequence of Voltage-gated inwardly rectifying potassium channel KCNH2 (Q12809 whole entry): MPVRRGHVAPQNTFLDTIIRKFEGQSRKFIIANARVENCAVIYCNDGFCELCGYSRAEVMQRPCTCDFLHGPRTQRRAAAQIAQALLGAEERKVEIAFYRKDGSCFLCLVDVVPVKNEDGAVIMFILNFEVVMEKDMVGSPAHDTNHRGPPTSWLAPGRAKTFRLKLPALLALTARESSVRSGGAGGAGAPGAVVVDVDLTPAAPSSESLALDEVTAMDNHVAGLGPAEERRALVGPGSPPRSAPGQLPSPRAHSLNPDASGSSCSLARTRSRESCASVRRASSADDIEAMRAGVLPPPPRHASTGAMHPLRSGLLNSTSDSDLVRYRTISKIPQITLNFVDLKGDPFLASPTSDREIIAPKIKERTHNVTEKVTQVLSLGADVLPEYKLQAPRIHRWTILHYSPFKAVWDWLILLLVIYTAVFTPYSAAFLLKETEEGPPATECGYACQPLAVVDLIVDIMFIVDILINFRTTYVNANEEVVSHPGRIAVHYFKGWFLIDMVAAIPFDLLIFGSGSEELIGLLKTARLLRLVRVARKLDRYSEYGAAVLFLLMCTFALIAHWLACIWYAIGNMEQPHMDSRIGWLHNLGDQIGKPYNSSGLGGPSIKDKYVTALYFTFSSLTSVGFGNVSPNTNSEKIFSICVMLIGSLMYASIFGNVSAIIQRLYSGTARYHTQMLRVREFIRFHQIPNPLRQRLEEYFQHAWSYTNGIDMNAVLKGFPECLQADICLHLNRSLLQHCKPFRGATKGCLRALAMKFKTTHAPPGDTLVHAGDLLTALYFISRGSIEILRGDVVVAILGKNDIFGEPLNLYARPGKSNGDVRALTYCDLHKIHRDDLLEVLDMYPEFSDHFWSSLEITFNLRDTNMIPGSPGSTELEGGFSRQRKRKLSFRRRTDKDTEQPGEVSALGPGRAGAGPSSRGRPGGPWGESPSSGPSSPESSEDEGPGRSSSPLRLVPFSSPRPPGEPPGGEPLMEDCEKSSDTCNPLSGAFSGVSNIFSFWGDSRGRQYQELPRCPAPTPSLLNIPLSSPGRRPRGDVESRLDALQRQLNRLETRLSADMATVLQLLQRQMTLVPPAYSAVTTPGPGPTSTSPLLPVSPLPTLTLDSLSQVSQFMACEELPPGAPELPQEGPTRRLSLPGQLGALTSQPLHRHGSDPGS

Mus musculus [28] = assay: Anti-aplastic anaemia in immune-mediated bone marrow failure BALB/c mouse model assessed as increase in neutrophils count at 2.5 to 10 mg/kg, po administered for 14 days and measured on day 14 by automated micro-analyzer; type: functional, organism-based; conditions: dose 2.5-10 mg/kg, time 14.0 day
hERG (KCNH2) = hERG (KCNH2) (Homo sapiens, UniProt Q12809); assay: Inhibition of human ERG expressed in CHO cells measured after 24 hrs by patch clamp assay relative to control; type: cell-based; conditions: CHO cells expressing human ERG
Sequence of hERG (KCNH2) (Q12809 whole entry): as above

CD8-positive T cell [29] = assay: Inhibition of aerobic glycolysis in CD3/CD28 antibody-stimulated C57BL/6 mouse primary CD8-positive T lymphocytes assessed as reduction in lactate production at 1 to 5 uM incubated for 48 hrs; type: functional, tissue-based; conditions: dose 1-5 µM
Mus musculus [30] = assay: Anti-aplastic anaemia in immune-mediated bone marrow failure BALB/c mouse model assessed as increase in plateletcrit at 2.5 to 10 mg/kg, po administered for 14 days and measured on day 14 by automated micro-analyzer; type: functional, organism-based; conditions: dose 2.5-10 mg/kg, time 14.0 day
Mus musculus [31] = assay: Anti-aplastic anaemia in immune-mediated bone marrow failure BALB/c mouse model assessed as increase in RBC count at 2.5 to 10 mg/kg, po administered for 14 days and measured on day 14 by automated micro-analyzer; type: functional, organism-based; conditions: dose 2.5-10 mg/kg, time 14.0 day
[32] = Inhibition of CD3/CD28 antibody-stimulated C57BL/6 mouse primary CD8-positive T lymphocytes activation assessed as proportion of CD69-positive cells at 5 uM incubated for 48 hrs by flow cytometry (reference value: 93.42%); type: functional, CD8-positive T cell; set-up: scale not given: the % may be the effect or the level left
Mus musculus [33] = assay: Anti-aplastic anaemia in immune-mediated bone marrow failure BALB/c mouse model assessed as slowing down the weight loss at 2.5 to 10 mg/kg, po administered for 14 days; type: functional, organism-based; conditions: dose 2.5-10 mg/kg, time 14.0 day

COC1=C[C@@H]2[C@@H]3Cc4c(COC(=O)/C=C/c5ccccc5)cc(OC)c(OC(=O)/C=C/c5ccccc5)c4[C@]2(CCN3C)CC1=O
Activity [1]: Non-Toxic
inhibition (CD8-positive T cell [2]): Dose-Dependent Effect
Survival [3]: 14 days
Activity (Mus musculus [4]): Active
Activity (Mus musculus [5]): Active
pIC50 [6]: 5.64
inhibition at 24 h, 10 µM [7]: 6.4%
pIC50 [8]: 5.49
Activity [9]: 89.37%
pIC50 [10]: 5.36
Activity (Mus musculus [11]): Active
Activity (Mus musculus [12]): Active
Activity (Mus musculus [13]): Active
Activity [14]: 80.87%
inhibition (CD8-positive T cell [15]): Active
LD50 [16]: > 10000 mg/kg
Activity (Mus musculus [17]): Active
Activity (Mus musculus [18]): Active
inhibition at 10 µM [19]: 98.1%
pIC50 [20]: 5.35
Activity (Mus musculus [21]): Active
Activity (Mus musculus [22]): Active
inhibition (CD8-positive T cell [23]): Active
inhibition at 10 µM (Peritoneal macrophage): 97.1%
Activity (Mus musculus [24]): Active
Activity (Mus musculus [25]): Active
Activity (Mus musculus [26]): Active
pIC50 [27]: < 4.52
Activity (Mus musculus [28]): Active
inhibition at 24 h (hERG (KCNH2)): 26.2%
inhibition (CD8-positive T cell [29]): Active
Activity (Mus musculus [30]): Active
Activity (Mus musculus [31]): Active
Activity [32]: 76.97%
Activity (Mus musculus [33]): Active
